Results from patent publication US4150139A, “Triazolobenzazepine derivatives” (Takeda Chemical Industries, Ltd., priority 1976, dated 1979).

Tested on: mice
Experiment: Analgesic Effect [mice, acetic acid-writhing method]
Assay type: in vivo
Conditions: Mus musculus, po, P.O. (per os), 95% C.L. in parentheses
Excerpt: The analgesic effects of some representative compounds (I) are set forth below in Table I.
[mice, acetic acid-writhing method]

Row | Compound | ED50 [mg/kg]
1 | CSc1nnc2n1C=Cc1ccccc1C2 [(I')Z = SCH3, 3-methylthio-11H-s-triazolo[3,4-b][3]benzazepine] | 10.5
2 | C[S+]([O-])c1nnc2n1C=Cc1ccccc1C2 (centres unmarked) [(I')Z = SOCH3, 3-methylsulfinyl-11H-s-triazolo[3,4-b][3]benzazepine] | 10.3
